Results on 36 compounds are retold here after patent US6828440B2, “Spiroindene and spiroindane compounds” (Euro-Celtique, S.A., priority 2001, dated 2004).

Each structure is given as a SMILES string.

T1 sequence (P41146 whole entry): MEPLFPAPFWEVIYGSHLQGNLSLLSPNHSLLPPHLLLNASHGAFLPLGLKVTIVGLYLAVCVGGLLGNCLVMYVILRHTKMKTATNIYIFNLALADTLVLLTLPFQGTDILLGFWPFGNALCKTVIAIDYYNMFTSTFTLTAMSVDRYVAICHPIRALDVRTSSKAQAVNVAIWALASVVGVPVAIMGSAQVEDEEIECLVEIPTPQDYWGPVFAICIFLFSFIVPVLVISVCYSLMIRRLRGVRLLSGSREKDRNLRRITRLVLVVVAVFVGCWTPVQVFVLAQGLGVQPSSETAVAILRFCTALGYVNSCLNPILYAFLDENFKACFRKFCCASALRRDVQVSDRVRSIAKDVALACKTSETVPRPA
Mu opioid receptor, sequence (P35372 whole entry, species assumed): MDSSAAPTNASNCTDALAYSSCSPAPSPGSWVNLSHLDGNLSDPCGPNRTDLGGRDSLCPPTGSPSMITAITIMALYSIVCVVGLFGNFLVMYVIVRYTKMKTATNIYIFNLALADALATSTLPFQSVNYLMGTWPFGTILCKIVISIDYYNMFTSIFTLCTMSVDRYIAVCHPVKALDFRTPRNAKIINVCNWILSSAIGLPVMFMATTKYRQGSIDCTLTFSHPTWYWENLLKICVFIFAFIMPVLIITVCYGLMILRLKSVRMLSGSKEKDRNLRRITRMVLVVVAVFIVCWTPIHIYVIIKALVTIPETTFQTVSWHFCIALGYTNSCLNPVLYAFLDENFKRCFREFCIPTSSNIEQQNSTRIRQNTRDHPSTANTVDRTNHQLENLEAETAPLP

The target in one experiment is Mu opioid receptor (Homo sapiens, UniProt P35372). Kind of experiment: Affinity at the μ receptor ([35S]GTPγS binding, membranes). As to conditions: GraphPad PRISM curve fitting, read-out: Mu Receptor Affinity calc Ki. The protocol: Affinity at the μ receptor for compounds was obtained according to the following assay:
Mu opioid receptor membrane solution was prepared by sequentially adding final concentrations of […] of the desired membrane protein, 10 μg/ml saponin, 3 μM GDP and 0.20 nM [^35S]GTPγS to binding buffer (100 mM NaCl, 10 mM MgCl2, 20 mM HEPES, pH 7.4) on ice. The prepared membrane solution (190 μl/well) was transferred to 96-shallow well polypropylene plates containing 10 μl of 20× concentrated stock solutions of agonist prepared in DMSO. Plates were incubated for 30 min at room temperature with shaking. Reactions were terminated by rapid filtration onto 96-well Unifilter GF/B filter plates (Packard) using a 96-well tissue harvester (Brandel) and followed by three filtration washes with 200 μl ice-cold binding buffer (10 mM NaH2PO4, 10 mM Na2HPO4, pH 7.4). Filter plates were subsequently dried at 50° C. for 2-3 hours. Fifty μl/well scintillation cocktail (MicroScint20, Packard) was added and plates were counted in a Packard Top-Count for 1 min/well.
Data were analyzed using the curve fitting functions in GraphPad PRISM™, v.3.0 and the results for several compounds are set forth in table 2 below: […]
Regarding `c1ccc2c(c1)CCC21CCN(Cc2ccc3ccccc3c2)CC1` [1-(naphth-2-yl-methyl)-spiro[piperidine-4,1′-indane]], the Ki – broadly, a dissociation constant, usually derived from enzyme kinetics or from competition with a known ligand – was 593 nM.

For the compound `c1ccc2c(c1)CCC21CCN(Cc2cccc3ccccc23)CC1` [1-(naphth-1-yl-methyl)-spiro[piperidine-4,1′-indane]], the Ki was 1120 nM.

Turning to `CC(C)C1CCC(N2CCC3(CCc4ccccc43)CC2)CC1` (stereo not shown) [1-(4-(1-methylethyl)-cyclohexyl)-spiro[piperidine-4,1′-indane]], the Ki is 939 nM.

Take `C1=CC2(CCN(C3CCCCCCC3)CC2)c2ccccc21` [1-(cyclooctyl)-spiro[piperidine-4,1′-indene]]: the Ki is 2040 nM.

The next experiment addresses T1, human opioid receptor-like receptor (ORL-1) (Homo sapiens, UniProt P41146).
T1 construct: host or cells: HEK-293
Put plainly: Nociceptin affinity at the ORL1 receptor ([35S]GTPgS binding, membranes from recombinant HEK-293 cells). As to conditions: ORL-1 membranes from recombinant HEK-293 cells; GraphPad PRISM curve fitting; read-out: Nociceptin Affinity calc Ki. The protocol: Nociceptin affinity at the ORL1 receptor for preferred compounds was obtained using the following assay:
Membranes from recombinant HEK-293 cells expressing the human opioid receptor-like receptor (ORL-1) (Receptor Biology) were prepared by lysing cells in ice-cold hypotonic buffer (2.5 mM MgCl2, 50 mM HEPES, pH 7.4) (10 ml/10 cm dish) followed by homogenization with a tissue grinder/teflon pestle. Membranes were collected by centrifugation at 30,000× g for 15 min at 4° C. and pellets resuspended in hypotonic buffer to a final concentration of 1-3 mg/ml. Protein concentrations were determined using the BioRad protein assay reagent with bovine serum albumen as standard. Aliquots of the ORL-1 receptor membranes were stored at −80° C.
Functional SGTPgS binding assays were conducted as follows. ORL-1 membrane solution was prepared by sequentially adding final concentrations of 0.066 mg/ml ORL-1 membrane protein, […], […] and 0.20 nM [^35S]GTPgS to binding buffer (100 mM NaCl, 10 mM MgCl2, 20 mM HEPES, pH 7.4) on ice. The prepared membrane solution ([…]) was transferred to 96-shallow well polypropylene plates containing […] of 20× concentrated stock solutions of agonist prepared in DMSO. Plates were incubated for 30 min at room temperature with shaking. Reactions were terminated by rapid filtration onto 96-well Unifilter GF/B filter plates (Packard) using a 96-well tissue harvester (Brandel) and followed by three filtration washes with […] ice-cold binding buffer (10 mM NaH2PO4, 10 mM Na2HPO4, pH 7.4). Filter plates were subsequently dried at 50° C. for 2-3 hours. […] scintillation cocktail (BetaScint; Wallac) was added and plates were counted in a Packard Top-Count for 1 min/well.
Data was analyzed using the curve fitting functions in GraphPad PRISMÔ, v.
Take `c1ccc2c(c1)CCC21CCN(CC2CCCCCCC2)CC1` [1-(cyclooctylmethyl)-spiro[piperidine-4,1′-indane]]: the Ki is 153 nM.

For the compound `c1ccc2c(c1)CCC21CCN(C2CC3CCC2C3)CC1` (stereo not shown) [1-[norbornan-2-yl]-spiro[piperidine-4,1′-indane]], the Ki is 7210 nM.

`c1ccc(CN2CCC3(CCc4ccccc43)CC2)cc1` [1-(benzyl)-spiro[piperidine-4,1′-indane]]: the Ki is 879 nM.

Take `c1ccc2c(c1)CCC21CCN(C2CCCCCCC2)CC1` [1-(cyclooctyl)-spiro[piperidine-4,1′-indane]]: the inhibition constant (Ki) was 516 nM.

As for `O=C1Cc2ccccc2C12CCN(Cc1ccc3ccccc3c1)CC2` [1-(naphth-2-yl-methyl)-spiro[piperidine-4,1′-(2-oxo)-indane]], the Ki was 83 nM.

Turning to `c1ccc2c(c1)CCC21CCN(C2CCC3CCCCC3C2)CC1` (stereo not shown) [1-(decahydro-2-naphthyl)-spiro[piperidine-4,1′-indane]], the inhibition constant Ki was 3140 nM.

Take `c1ccc2c(c1)CCC21CCN(Cc2ccc3ccccc3c2)CC1` [1-(naphth-2-yl-methyl)-spiro[piperidine-4,1′-indane]]: the inhibition constant (Ki) is 35 nM.

In the case of `Fc1ccc(C(CCCN2CCC3(CCc4ccccc43)CC2)c2ccc(F)cc2)cc1` [1-(4,4-Bis(p-fluorophenyl)butyl)-spiro[piperidine-4,1′-indane]], the Ki is above 10000 nM.

For `CC(C)CCC(C)N1CCC2(CCc3ccccc32)CC1` (stereo not shown) [1-(5-methylhex-2-yl)-spiro[piperidine-4,1′-indane]], the Ki is 676 nM.

On to `CC(C)CCC(C)N1CCC2(C=Cc3ccccc32)CC1` (stereo not shown) [1-(5-methylhex-2-yl)-spiro[piperidine-4,1′-indene]], for which the Ki is 355 nM.

Turning to `c1ccc2cc(CN3CCC4(CCC5CCCCC54)CC3)ccc2c1` (stereo not drawn) [1-(naphth-2-yl-methyl)-spiro[piperidine-4,1′-cis-3a, 4,5,6,7,7a-hexahydroindane]], the Ki was 306 nM.

Regarding `CC(C)C1CCC(N2CCC3(C=Cc4ccccc43)CC2)CC1` (stereo not shown) [1-[4-(2-propyl)-cyclohexyl]-spiro[piperidine-4,1′-indene]], the Ki is 292 nM.

Consider `C1=CC2(CCN(C3CCc4ccccc4C3)CC2)c2ccccc21` (stereo not shown) [1-(2-[1,2,3,4-tetrahydronaphthyl])-spiro[piperidine-4,1′-indene]], for which the Ki is 1200 nM.

On to `c1ccc(CCN2CCC3(CCc4ccccc43)CC2)cc1` [1-(2-phenyl-ethyl)-spiro[piperidine-4,1′-indane]], for which the Ki was 921 nM.

`CCCC1CCC(N2CCC3(CCc4ccccc43)CC2)CC1` (stereo not shown) [1-(4-propyl-cyclohexyl)-spiro[piperidine-4,1′-indane]]: the Ki was 2240 nM.

As to `c1ccc2c(c1)CC(N1CCC3(CCc4ccccc43)CC1)C2` [1-(1,3-dihydroinden-2-yl)-spiro[piperidine-4,1′-indane]], the inhibition constant (Ki) was above 10000 nM.

For `c1ccc2c(c1)CCC21CCN(Cc2cccc3ccccc23)CC1` [1-(naphth-1-yl-methyl)-spiro[piperidine-4,1′-indane]], the Ki is 146 nM.

Take `CC(C)C1CCC(N2CCC3(CCc4ccccc43)CC2)CC1` (stereo not shown) [1-(4-(1-methylethyl)-cyclohexyl)-spiro[piperidine-4,1′-indane]]: the Ki was 500 nM.

With `C1=CC2(CCN(Cc3ccc(OCc4ccccc4)cc3)CC2)c2ccccc21` [1-(p-benzyloxybenzyl)-spiro[piperidine-4,1′-indene]], the Ki is 1560 nM.

Take `C1=CC2(CCN(C3CCC4CCCCC4C3)CC2)c2ccccc21` (stereo not shown) [1-(decahydro-2-naphthyl)-spiro[piperidine-4,1′-indene]]: the Ki was 1290 nM.

On to `c1ccc(-c2ccc(CN3CCC4(CCc5ccccc54)CC3)cc2)cc1` [1-(p-phenylbenzyl)-spiro[piperidine-4,1′-indane]], for which the Ki was 1210 nM.

In the case of `C1=CC2(CCN(C3CC4CCC3C4)CC2)c2ccccc21` (stereo not shown) [1-(norbornan-2-yl)-spiro[piperidine-4,1′-indene]], the Ki is 6470 nM.

With `C1=CC2(CCN(C3CCCCCCCCC3)CC2)c2ccccc21` [1-cyclodecyl-spiro[piperidine-4,1′-indene]], the Ki is 427 nM.

`c1ccc2c(c1)CCc1ccccc1C2N1CCC2(CCc3ccccc32)CC1` [1-(10,11-Dihydro-5H-dibenzo[a,d]-cyclohepten-5-yl)-spiro[piperidine-4,1′-indane]]: the Ki was above 10000 nM.

On to `CC1(C)COC2(CCC(N3CCC4(C=Cc5ccccc54)CC3)CC2)OC1` [1-(3,3-dimethyl-1,5-dioxaspiro[5.5]undeca-9-yl)-spiro[piperidine-4,1′-indene]], for which the Ki is above 10000 nM.

For the compound `C1=CC2(CCN(CCC(c3ccccc3)c3ccccc3)CC2)c2ccccc21` [1-(3,3-Bis(phenyl)propyl)-spiro[piperidine-4,1′-indene]], the Ki is 42 nM.

As for `c1ccc2c(c1)CCC21CCN(C2C3CCC2CC3)CC1` (stereo not shown) [1-(norbornan-7-yl)-spiro[piperidine-4,1′-indane]], the Ki is 913 nM.

For `C1=CC2(CCN(C3Cc4ccccc4C3)CC2)c2ccccc21` [1-(1,3-dihydroinden-2-yl)-spiro[piperidine-4,1′-indene]], the Ki is 8500 nM.

For `C1=CC2(CCN(CC3CCCCCCC3)CC2)c2ccccc21` [1-(cyclooctylmethyl)-spiro[piperidine-4,1′-indene]], the Ki is 309 nM.

`CC1(C)COC2(CCC(N3CCC4(CCc5ccccc54)CC3)CC2)OC1` [1-(3,3-dimethyl-1,5-dioxaspiro[5.5]undeca-9-yl)-spiro[piperidine-4,1′-indane]]: the Ki is above 10000 nM.

For `O=C1CC2(CCN(Cc3ccc4ccccc4c3)CC2)c2ccccc21` [1-(naphth-2-yl-methyl)-spiro[piperidine-4,1′-(3-oxo)-indane]], the Ki is 419 nM.

In the case of `N#Cc1ccc(CN2CCC3(CCc4ccccc43)CC2)cc1` [1-(p-cyano-benzyl)-spiro[piperidine-4,1′-indane]], the Ki is 1530 nM.

As to `c1ccc(COc2ccc(CN3CCC4(CCc5ccccc54)CC3)cc2)cc1` [1-(p-benzyloxybenzyl)-spiro[piperidine-4,1′-indane]], the Ki was 877 nM.

Regarding `C1=CC2(CCN(C3CCCCCCC3)CC2)c2ccccc21` [1-(cyclooctyl)-spiro[piperidine-4,1′-indene]], the Ki was 500 nM.

As to `C1=CC2(CCN(C3c4ccccc4CCc4ccccc43)CC2)c2ccccc21` [1-(10,11-Dihydro-5H-dibenzo[a,d]-cyclohepten-5-yl)-spiro[piperidine-4,1′-indene]], the Ki is above 10000 nM.

Consider `C1=CC2(CCN(Cc3ccc4ccccc4c3)CC2)c2ccccc21` [1-(naphth-2-yl-methyl)-spiro[piperidine-4,1′-indene]], for which the Ki was 36 nM.
